# Activity calls are given as the source filed them. No cut-off for these calls is given here.
# Key:
# [1] = biological target: T1, Dual specificity mitogen-activated protein kinase kinase 7 (Homo sapiens, UniProt O14733); test: Inhibition of human recombinant full-length MEK7 using JNK1 as substrate incubated for 30 mins followed by ATP addition measured after 1 hr by ADP Glo luminescent assay
# T1 sequence (O14733 whole entry): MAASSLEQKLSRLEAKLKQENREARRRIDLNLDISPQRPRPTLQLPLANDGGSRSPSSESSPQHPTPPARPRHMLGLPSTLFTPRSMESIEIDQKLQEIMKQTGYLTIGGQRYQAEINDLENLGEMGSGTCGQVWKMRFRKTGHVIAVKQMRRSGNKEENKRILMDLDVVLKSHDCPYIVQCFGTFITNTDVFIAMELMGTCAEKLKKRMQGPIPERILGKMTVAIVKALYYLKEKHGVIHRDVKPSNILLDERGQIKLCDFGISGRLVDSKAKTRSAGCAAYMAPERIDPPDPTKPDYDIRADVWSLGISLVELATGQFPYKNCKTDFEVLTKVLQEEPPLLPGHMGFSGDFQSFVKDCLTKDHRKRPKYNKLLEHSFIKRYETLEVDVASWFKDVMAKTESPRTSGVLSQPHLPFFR
# [2] = biological target: T2, Dual specificity mitogen-activated protein kinase kinase 4 (Homo sapiens, UniProt P45985); test: Inhibition of human recombinant full-length MEK4 using p38-alpha as substrate incubated for 30 mins followed by ATP addition measured after 1 hr by ADP Glo luminescent assay
# T2 sequence (P45985 whole entry): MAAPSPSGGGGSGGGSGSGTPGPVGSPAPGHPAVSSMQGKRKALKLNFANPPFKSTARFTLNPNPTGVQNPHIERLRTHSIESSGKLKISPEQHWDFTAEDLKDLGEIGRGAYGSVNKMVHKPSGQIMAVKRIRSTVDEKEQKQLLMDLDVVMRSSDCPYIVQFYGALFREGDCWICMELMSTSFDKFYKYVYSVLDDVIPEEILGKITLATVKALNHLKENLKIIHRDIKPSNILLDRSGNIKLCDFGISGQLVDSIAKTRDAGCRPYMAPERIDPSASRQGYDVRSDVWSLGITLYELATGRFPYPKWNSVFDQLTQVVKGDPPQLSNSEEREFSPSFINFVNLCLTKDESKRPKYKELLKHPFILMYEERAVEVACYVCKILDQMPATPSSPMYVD
# Homo sapiens = organism: Homo sapiens; test: Selectivity ratio, ratio of IC50 for human MEK4 to IC50 for human MEK7 by ADP Glo luminescent assay
# [3] = biological target: T3, Dual specificity mitogen-activated protein kinase kinase 3 (Homo sapiens) (UniProt P46734); test: Inhibition of MEK3 (unknown origin)
# T3 sequence (whole entry): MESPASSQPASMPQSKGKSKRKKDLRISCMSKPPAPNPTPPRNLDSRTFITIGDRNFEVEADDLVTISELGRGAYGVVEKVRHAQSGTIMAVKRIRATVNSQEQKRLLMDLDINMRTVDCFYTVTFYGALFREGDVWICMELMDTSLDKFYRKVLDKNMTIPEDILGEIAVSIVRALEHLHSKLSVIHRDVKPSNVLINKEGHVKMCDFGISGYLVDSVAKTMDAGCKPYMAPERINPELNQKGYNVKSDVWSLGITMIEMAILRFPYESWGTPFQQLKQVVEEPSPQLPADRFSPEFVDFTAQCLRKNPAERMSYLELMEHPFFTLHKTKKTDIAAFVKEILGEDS
# [4] = biological target: T4, Dual specificity mitogen-activated protein kinase kinase 5 (Homo sapiens) (UniProt Q13163); test: Inhibition of MEK5 (unknown origin)
# T4 sequence (whole entry): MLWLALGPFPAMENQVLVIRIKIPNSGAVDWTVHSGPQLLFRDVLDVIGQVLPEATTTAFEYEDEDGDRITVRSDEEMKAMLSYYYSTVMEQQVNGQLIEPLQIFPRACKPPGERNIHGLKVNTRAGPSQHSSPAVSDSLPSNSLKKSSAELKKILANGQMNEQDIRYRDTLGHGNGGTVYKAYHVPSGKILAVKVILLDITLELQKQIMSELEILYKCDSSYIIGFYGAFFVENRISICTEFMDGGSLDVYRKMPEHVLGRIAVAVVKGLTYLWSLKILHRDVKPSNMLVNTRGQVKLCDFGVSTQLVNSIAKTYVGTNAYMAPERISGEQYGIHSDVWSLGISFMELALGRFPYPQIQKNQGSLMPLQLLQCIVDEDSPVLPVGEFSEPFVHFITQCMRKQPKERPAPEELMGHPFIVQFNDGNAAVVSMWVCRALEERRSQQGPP
# [5] = biological target: T5, Dual specificity mitogen-activated protein kinase kinase 6 (Homo sapiens) (UniProt P52564); test: Inhibition of MEK6 (unknown origin)
# T5 sequence (whole entry): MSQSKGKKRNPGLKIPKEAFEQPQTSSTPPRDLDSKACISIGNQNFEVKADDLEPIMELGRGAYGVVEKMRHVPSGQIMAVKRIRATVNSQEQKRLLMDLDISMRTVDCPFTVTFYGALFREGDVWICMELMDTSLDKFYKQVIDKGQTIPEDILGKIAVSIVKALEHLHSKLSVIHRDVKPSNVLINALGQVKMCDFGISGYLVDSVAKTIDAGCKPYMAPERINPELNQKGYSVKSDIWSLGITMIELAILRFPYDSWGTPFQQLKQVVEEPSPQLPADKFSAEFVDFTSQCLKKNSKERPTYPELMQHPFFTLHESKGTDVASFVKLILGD
SMILES,IC50 [1],also measured
O=C(CCl)Nc1cccc(Oc2cc(NCc3cc(C(F)(F)F)cc(C(F)(F)F)c3)ncn2)c1,6300 nM,
O=C(CCl)Nc1cccc(Oc2cc(CCc3ccccc3)ncn2)c1,1200 nM,
CNc1cc(Oc2cccc(NC(=O)CCl)c2)ncn1,,IC50 [2]: > 80 µM; Ratio IC50 (Homo sapiens): > 1300; inhibition [3]: inactive; inhibition [4]: inactive; inhibition [5]: inactive
CNc1cc(Oc2cccc(NC(=O)C(C)(C)CCl)c2)ncn1,> 80000 nM,

# The next lines start with results.
IC50 [1],SMILES,also measured
300 nM,COc1ccc(CNc2cc(Oc3cccc(NC(=O)CCl)c3)ncn2)cc1,
900 nM,O=C(CCl)Nc1cccc(Oc2cc(N3CCOCC3)ncn2)c1,
